Values quoted from earlier work as cited in PMC5082644 (Molecular Vision, 2016).

Test system: complement activation / C5b-9n (MAC) deposition in human fetal RPE cell cultures
Conditions: among peptides with polar dipeptides added at the N-terminus

## Ac-RSI[CV(meW)QDWGAHRC]T-NH2 (disulfide)
  Efficacy in the human RPE cell-based assay: most efficacious
